In this assay the target is FintCSP1-Ser84Ala (Frankliniella intonsa, UniProt A0A891LVF4, S84A). The experiment in a line: Fluorescence (1-NPN) binding and competitive binding assay, FintCSP1 mutant. As to the method:
The binding affinity of FintCSP1 and FoccCSP to the fluorescent probe N-phenyl-1-naphthylamine (1-NPN) was tested using a Spectramax M2 fluorescence spectrometer (Molecular Devices, USA) as reported previously. Volatile compounds and 1-NPN were first dissolved to a concentration of 1 mM in HPLC-grade methanol and dissolved to their indicated final concentration (2–20 μM) to titrate 2 μM protein solutions resuspended in 50 mM Tris-HCl (pH 7.4). The 1-NPN/FintCSP1 or 1-NPN/FoccCSP mixture was excited at 280 nm, and the emission spectra were recorded at 415 nm. The binding constants (Kd) of FintCSP1 or FoccCSP to 1-NPN were calculated by Scatchard analysis using Prism 5 software (GraphPad, La Jolla, CA, USA). Assuming a protein activity of 100% and that the volatile compound binds to the protein in a 1:1 ratio at saturation, the dissociation constants (Ki) of FintCSP1 or FoccCSP for each ligand were calculated according to the IC50 (the concentration when the ligand replaces 50% of the probe) value of the volatile compounds. The Ki values were calculated according to the following equation: Ki = [IC50]/(1 + [1-NPN]/K1-NPN), where [1-NPN] is the free concentration of 1-NPN, and K1-NPN is the Kd of the 1-NPN/FintCSP1 or 1-NPN/FoccCSP.
To verify the key amino acids of FintCSP1 and FoccCSP that bind to cis-3-hexenal, six amino acid residues of FintCSP1 were mutated (Lys26Ala, Phe27Ala, Thr28Ala, Glu67Ala, Ser84Ala, and the negative control residue Val132Ala) and nine amino acid residues of FoccCSP were mutated (Lys26Ala, Phe27Ala, Thr28Ala, Thr29Ala, Tyr31Ala, Asp64Ala, Glu67Ala, Gln87Ala, and the negative control residue Val132Ala) with the Fast Mutagenesis System Kit (Transgen Biotech, Beijing, China) using the pET-30a/FintCSP1 and pET-30a/FoccCSP plasmid DNA as template, respectively. […] After validation by sequencing, each recombinant variant protein was produced and purified as described above, and their binding affinity to cis-3-hexenal was measured as described above.

Each structure is given as a SMILES string.

Sequence of FintCSP1-Ser84Ala (A0A891LVF4 entry or part of it S84A): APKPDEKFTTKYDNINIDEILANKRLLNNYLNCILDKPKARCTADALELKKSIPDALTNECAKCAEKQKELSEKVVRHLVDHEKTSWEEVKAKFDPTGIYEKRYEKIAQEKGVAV

For the compound `CC/C=C\CC=O` [cis-3-hexenal], the IC50 (in general, the concentration at which inhibition is half-maximal) was found to be 41.3 ± 3.96 µM and affinity was put at a Ki of 29.7 ± 2.84 µM.
